Experimental data: patent US5286737A, “Method for inhibiting aromatase” (Kureha Kagaku Kogyo Kabushiki Kaisha, priority 1992, dated 1994)
Where two headings read alike, the source gives them in different places.

Columns and labels:
aromatase = biological target: T1, aromatase (Homo sapiens, UniProt P11511); test: Aromatase inhibitory activity (H14COOH release from [19-14C]4-androstene-3,17-dione, human placenta microsomes); assay type: biochemical
T1 construct: microsomes arising from human placenta (0.1 mg/ml, protein concentration); from tissue; host or cells: human placenta microsomes
T1 sequence (P11511 1-503): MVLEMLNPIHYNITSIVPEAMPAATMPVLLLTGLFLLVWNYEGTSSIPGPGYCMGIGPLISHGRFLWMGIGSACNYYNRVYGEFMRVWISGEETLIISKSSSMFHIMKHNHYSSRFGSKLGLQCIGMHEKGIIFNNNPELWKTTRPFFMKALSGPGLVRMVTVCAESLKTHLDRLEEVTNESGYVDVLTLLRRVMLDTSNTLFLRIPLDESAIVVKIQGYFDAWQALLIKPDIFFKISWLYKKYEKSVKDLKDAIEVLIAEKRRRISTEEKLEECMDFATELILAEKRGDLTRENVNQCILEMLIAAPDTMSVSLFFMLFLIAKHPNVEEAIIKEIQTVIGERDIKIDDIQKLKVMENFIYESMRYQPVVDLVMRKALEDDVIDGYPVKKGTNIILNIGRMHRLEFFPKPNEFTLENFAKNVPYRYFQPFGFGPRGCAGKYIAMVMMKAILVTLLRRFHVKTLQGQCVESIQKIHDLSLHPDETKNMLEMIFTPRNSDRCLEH
Experimental: The aromatase inhibitory activity was measured in the manner described by Covey, D. F., Biochem. and Biophys. Res. Commun., 157 (1) 81-86 (1988). The inhibitory activity of the aromatase with the compounds was evaluated in a 50% inhibitory concentration (IC50) of the aromatase activity.
Aromatase activity was measured in the manner described by Covey, D. F., Biochem. Biophys. Res. Commun. 157 (1), 81-86 (1988).
The inhibitory activity of the aromatase with the compounds was evaluated in 50% inhibitory concentration (IC50) of the aromatase.
An aromatase base was taken from microsomes of human placenta and [19-^14 C]4-androstene-3,17 dione was used as a substrate. H^14 COOH was released into a reaction mixture after aromatization and its radioactivity was measured to evaluate the aromatase activity.
The inhibitory activity of the aromatase and the concentration of the compounds were depicted in a graph from which the IC50 was calculated.
To a solution of phosphoric acid buffer, [19-^14 C]4-androstene-3,17-dione (1×10^-6 M, 2 kBq/ml), microsomes arising from human placenta (0.1 mg/ml, protein concentration), coenzyme (2×10^-3 M, […]), glucose-6-phosphoric acid (4×10^-3 M), and glucose-6-phosphoric acid dehydrogenase (4U/ml) were added and reacted under stirring at 37° C. for 30 min.
The compound that was dissolved in DMSO was added into the reaction mixture and the final concentration of MDSO was in the range of 0.1 to 0.55% by volume. Chloroform (5 ml) was then added into the reaction mixture to terminate the reaction and to allow for recovery of the H^14 COOH in a water layer. The collected water layer (0.1 ml) was added in liquid scintillation cocktail (Atomlight, duPont, 4 ml) to measure its radioactivity. 4-Hydroxyandrostenedione was used as a positive control.

mastocarcinoma = test: Inhibition of tumor growth in rats with mastocarcinoma after 7,12-dimethylbenzanthracene; assay type: in vivo, Sprague-Dawley rats; details: Rattus norvegicus, 600 h, read-out: I.R. (inhibition rate of tumor growth)
Experimental: Female Sprague-Dawley rates aged 50 days were orally given 7,12-dimethylbenzanthracene (15 mg/kg) and observed for two months. The rats that developed spontaneous mastocarcinoma were selected and divided into three groups of 15 animals.
The first group was administered daily an ip injection for 20 consecutive days in an amount of 20 mg/kg (body weight) of the compounds in a physiological salt solution (10 ml).
The second group was also treated in the same manner as the first group except that 4-hydroxyandrostenedione was used as a positive control.
The third group was administered only an amount of 10 ml of a physiological salt solution.
After 5 days from the last injection, the rats were sacrificed to enucleate tumors.
The tumors were weighed and the mean tumor weight (T) of the first and the second groups was calculated. The mean tumor weight (C) of the third group was also calculated. […] [formula]

[1] = female Sprague-Dawley rats, daily ip 20 mg/kg for 20 consecutive days, tumors weighed 5 days after last injection
[2] = microsomes of human placenta, 0.1 mg/ml protein, substrate [19-14C]4-androstene-3,17-dione 1×10^-6 M, 37° C., 30 min, read-out: 50% inhibitory concentration (IC50) of the aromatase activity

| Structure (SMILES) | IC50 (aromatase) [µM] | inhibition in vivo at 20 mg/kg (mastocarcinoma; [1]) [%] | inhibition in vivo at 20 mg/kg (mastocarcinoma; ip) [%] | IC50 (aromatase; [2]) [µM] |
| --- | --- | --- | --- | --- |
| CC1(C)CCC(Cc2ccc(C(F)(F)F)cc2)C1(O)Cn1ccnc1 (stereo not shown) [compound 19] | 5.5 | 63 | – | – |
| C[C@]12CCC(=O)C(O)=C1CC[C@@H]1[C@@H]2CC[C@]2(C)C(=O)CC[C@@H]12 [Control, 4-Hydroxyandrostenedione, reference compound] | 20 | – | – | – |
| CC1(C)CCC(Cc2ccc(C(F)(F)F)cc2)C1(O)Cn1cncn1 (stereo not shown) [compound 18] | 7.2 | 65 | – | – |
| OC1(Cn2cncn2)CCCC1Cc1ccc(Cl)cc1 (stereo not shown) [compound 3] | 3.8 | 64 | – | – |
| CC1(C)CCC(Cc2ccc(Cl)cc2)C1(O)Cn1ccnc1 (stereo not shown) [compound 16] | 0.3 | 83 | – | – |
| OC1(Cn2ccnc2)CCCC1Cc1ccc(Cl)cc1 (stereo not shown) [compound 4] | 5 | 74 | – | – |
| CC(C)c1ccc(CC2CCC(C)(C)C2(O)Cn2cncn2)cc1 (stereo not shown) [compound 13] | 8.4 | 55 | – | – |
| CC(C)c1ccc(CC2CCC(C)(C)C2(O)Cn2ccnc2)cc1 (stereo not shown) [compound 14] | 6 | 63 | – | – |
| CC1(C)CCC(Cc2ccc(Cl)cc2)C1(O)Cn1cncn1 (stereo not shown) [compound 15] | 4.7 | – | 74 | – |
| OC1(Cn2cncn2)CCCC1Cc1ccc(F)cc1F (stereo not shown) [Comp. No. 9, 2-(2,4-Difluorobenzyl)-1-(1,2,4-triazoly-1-yl-methyl)cyclopentanol] | 7.5 | 72 | – | – |
| CC(C)(C)c1ccc(CC2CCC(C)(C)C2(O)Cn2cncn2)cc1 (stereo not shown) [compound 11] | 2.6 | 71 | – | – |
| OC1(Cn2ccnc2)CCCC1Cc1ccc(F)cc1 (stereo not shown) [Comp. No. 2, 2-(-Fluorobenzyl)-1-(imidazoly-1-ylmethyl)cyclopentanol] | 7 | 70 | – | – |
| N#Cc1ccc(CC2CCCC2(O)Cn2cncn2)cc1 (stereo not shown) [compound 5] | 7.3 | 60 | – | – |
| OC1(Cn2cncn2)CCCC1Cc1ccc(F)cc1 (stereo not shown) [Comp. No. 1, 2-(p-Fluorobenzyl)-1-(1,2,4-triazoly-1-yl-methyl)cyclopentanol] | 3.5 | 60 | – | – |
| CC(C)c1ccc(CC2CCCC2(O)Cn2ccnc2)cc1 (stereo not shown) [compound 21] | – | 72 | – | 6.3 |
| N#Cc1ccc(CC2CCCC2(O)Cn2ccnc2)cc1 (stereo not shown) [compound 6] | – | 53 | – | 4.5 |
| CC1(C)CCC(Cc2ccccc2-c2ccccc2)C1(O)Cn1ccnc1 (stereo not shown) [compound 7] | – | 58 | – | 3.7 |
| CC(C)c1ccc(CC2CCCC2(O)Cn2cncn2)cc1 (stereo not shown) [compound 20] | 4.3 | 60 | – | – |
| OC1(Cn2ccnc2)CCCC1Cc1ccc(F)cc1F (stereo not shown) [Comp. No. 10, 2-(2,4-Difluorobenzyl)-1-(imidazoly-1-yl-methyl)cyclopentanol] | 0.48 | 85 | – | – |
| CC1(C)CCC(Cc2ccc(-c3ccccc3)cc2)C1(O)Cn1ccnc1 (stereo not shown) [compound 8] | – | 60 | – | 4.1 |
| CC1(C)CCC(Cc2ccc(F)cc2F)C1(O)Cn1ccnc1 (stereo not shown) [compound 17] | 0.4 | 67 | – | – |
| CC(C)(C)c1ccc(CC2CCC(C)(C)C2(O)Cn2ccnc2)cc1 (stereo not shown) [compound 12] | 4.2 | 73 | – | – |
